pIC50: −log10 of the molar value.
Test system: 941728-121-R-J1-PDC complex spheroid viability
Assay: Anticancer human tumor 941728-121-R-J1-PDC patient-derived lung adenocarcinoma cell line growth inhibition [RAS]
Conditions: for pIC50: curve of first compound; for viability, T/C: stronger effect = lower value
From the text: RAS pathway inhibitors in Combinations in Complex Spheroids
A high-throughput screen of multi-cell type tumor spheroids was designed to identify active combinations of RAS pathway inhibitors and targeted small molecules. Complex spheroids include a stromal component modeled by human endothelial cells (HUVEC) and fibroblasts modeled by human mesenchymal stem cells (MSCs). The concentration ranges selected for each drug and investigational agent were based upon clinically achievable concentrations if the clinical Cmax of the agent was known.
Compounds. The drugs and investigational agents: abemaciclib (NSC768073), cobimetinib (NSC768068), divarasib (GDC6063, NSC841802), docetaxel (NSC628503), GDC-1971 (RLY-1971, NSC841576), gemcitabine (NSC613327), inavolisib (NSC800729), ipatasertib (NSC767898), KB-0742 (NSC834161), MRTX-1133 (NSC836407), osimertinib (NSC779217), RMC-4630 (NSC839698), RMC-6236 (NSC851965), RMC-6291 (NSC852671), Ro-3306 (NSC812927), sapanisertib (NSC764658), SN-38 (NSC673596), staurosporine (NSC755774), SY5609 (NSC837396), and tovorafenib (DAY101, NSC766906), were obtained from the National Cancer Institute (NCI) Developmental Therapeutics Program Chemical Repository. The FDA-approved anticancer drug set is available from the NCI Developmental Therapeutics Program. […] The stock solutions were prepared in dimethyl sulfoxide (DMSO, Sigma-Aldrich, St. Louis, MO, cat. D2650) at 800-fold the tested concentration and stored at -70 degrees C prior to their use. All drugs and investigational agents were tested over a range starting from a high concentration at or near the clinical Cmax and decreasing in half-log increments. If the clinical Cmax for an agent had not been determined, the highest concentration tested was 10 microM.
Cell Culture. All cells were maintained in an incubator at 37 degrees C and 5% CO2 with 95% humidity. The PDC lines were cultured according to standard operating procedures established by the NCI PDMR. All PDCs were thawed and cultured in Matrigel-coated flasks prepared with a working solution of 1X Ham's F-12 nutrient mix, without supplementation (Invitrogen, Waltham, MA, cat. 11765054), 100 U/mL penicillin-streptomycin (Invitrogen, cat. 15140122), and 2.5% Matrigel (Corning Inc., Corning, NY, cat. 354248) for the first three passages. The 362531-283-R-J2-PDC and 782815-120-R-J1-PDC lines were cultured in 6C/Colon 1B media, which includes advanced DMEM/F-12 (Thermo Fisher Scientific, cat. 12634028), 10 mM HEPES (Thermo Fisher Scientific, cat. 15630080), 1X GlutaMAX supplement (Thermo Fisher Scientific, cat. 35050061), 0.1 mg/mL primocin (InvivoGen, San Diego, CA, cat. ant-pm-2), 10% defined fetal bovine serum, heat inactivated (HyClone Laboratories Inc., Logan, UT, cat. SH30070.03HI), 50% L-WRN conditioned media (ATCC, cat. CRL-3276), 1.25 mM N-Acetyl-L-cysteine (Sigma-Aldrich, cat. A9165), 10 mM nicotinamide (Sigma-Aldrich, cat. N0636), 1X B-27 supplement (Thermo Fisher Scientific, cat. 17504044), 1X N-2 supplement (Thermo Fisher Scientific, cat. 17502048), 50 ng/mL human EGF (Thermo Fisher Scientific, cat. PHG0311), and 10 microM Y-27632 dihydrochloride (Tocris Bioscience, cat. 1254). The K12877-001-R-J1-PDC line was cultured in 6I media, which includes all 6C/Colon 1B media plus 10 ng/mL human FGF-10 (PeproTech, cat. 100-26), 1 ng/mL human FGF-2 (PeproTech, cat. 100-18B), 1 µM prostaglandin E2 (Tocris Bioscience, cat. 2296), […] hydrocortisone (Sigma-Aldrich, cat. H4001), and […] bovine insulin (Sigma-Aldrich, cat. I6634). The K86415-001-R-J1-PDC line was cultured in 6D media, which includes all 6C/Colon 1B media components minus the L-WRN conditioned media. The 485176-168-R4-J1-PDC was cultured in PANC media, which includes all 6C/Colon 1B media plus 100 ng/mL human FGF-10 (PeproTech, cat. 100-26), 500 nM SB-431542 (Selleckchem, cat. S1067), and 10 nM gastrin (Tocris Bioscience, cat. 3006). […]

[1] = second compound 0.0316 µM, first compound 0.0316 µM
[2] = second compound 0.0316 µM, first compound 0.1 µM
[3] = second compound 0.1 µM, first compound 0.0316 µM
[4] = second compound 0.1 µM, first compound 0.1 µM
[5] = second compound 0.316 µM, first compound 0.0316 µM
[6] = second compound 0.316 µM, first compound 0.1 µM
[7] = second compound 1 µM, first compound 0.0316 µM
[8] = second compound 1 µM, first compound 0.1 µM
[9] = second compound 3.16 µM, first compound 0.0316 µM
[10] = second compound 3.16 µM, first compound 0.1 µM
[11] = second compound 10 µM, first compound 0.0316 µM
[12] = second compound 10 µM, first compound 0.1 µM
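Also: spheroids exposed to compounds for 7 days before readout.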
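For viability, T/C in this document: 100% = DMSO vehicle control viability.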

SMILES: CC(C)NCC(C(=O)N1CCN(c2ncnc3c2C(C)CC3O)CC1)c1ccc(Cl)cc1 (centres undefined) + C#Cc1c(F)ccc2cc(O)cc(-c3ncc4c(N5CC6CCC(C5)N6)nc(OCC56CCCN5CC(F)C6)nc4c3F)c12
- pIC50 (second compound 0.0316 µM): 5.98
- pIC50 (second compound 0.1 µM): 6.01
- pIC50 (second compound 0.316 µM): 6.37
- pIC50 (second compound 1 µM): > 7.50
- pIC50 (second compound 3.16 µM): > 7.50
- pIC50 (second compound 10 µM): > 7.50
- viability, T/C [1]: 102%
- viability, T/C [2]: 79.8%
- viability, T/C (second compound 0.0316 µM, first compound 0.316 µM): 63.7%
- viability, T/C (second compound 0.0316 µM, first compound 1 µM): 51.8%
- viability, T/C (second compound 0.0316 µM, first compound 3.16 µM): 38.7%
- viability, T/C (second compound 0.0316 µM, first compound 10 µM): 34.8%
- viability, T/C [3]: 79.9%
- viability, T/C [4]: 70.9%
- viability, T/C (second compound 0.1 µM, first compound 0.316 µM): 61.6%
- viability, T/C (second compound 0.1 µM, first compound 1 µM): 50%
- viability, T/C (second compound 0.1 µM, first compound 3.16 µM): 39.3%
- viability, T/C (second compound 0.1 µM, first compound 10 µM): 33.4%
- viability, T/C [5]: 56.6%
- viability, T/C [6]: 59.2%
- viability, T/C (second compound 0.316 µM, first compound 0.316 µM): 52%
- viability, T/C (second compound 0.316 µM, first compound 1 µM): 42.1%
- viability, T/C (second compound 0.316 µM, first compound 3.16 µM): 35%
- viability, T/C (second compound 0.316 µM, first compound 10 µM): 26.9%
- viability, T/C [7]: 39.3%
- viability, T/C [8]: 39.4%
- viability, T/C (second compound 1 µM, first compound 0.316 µM): 35%
- viability, T/C (second compound 1 µM, first compound 1 µM): 30.9%
- viability, T/C (second compound 1 µM, first compound 3.16 µM): 22.9%
- viability, T/C (second compound 1 µM, first compound 10 µM): 21.1%
- viability, T/C [9]: 32%
- viability, T/C [10]: 30.4%
- viability, T/C (second compound 3.16 µM, first compound 0.316 µM): 28.7%
- viability, T/C (second compound 3.16 µM, first compound 1 µM): 24.9%
- viability, T/C (second compound 3.16 µM, first compound 3.16 µM): 24.6%
- viability, T/C (second compound 3.16 µM, first compound 10 µM): 17.3%
- viability, T/C [11]: 25.4%
- viability, T/C [12]: 23.5%
- viability, T/C (second compound 10 µM, first compound 0.316 µM): 22.3%
- viability, T/C (second compound 10 µM, first compound 1 µM): 21.6%
- viability, T/C (second compound 10 µM, first compound 3.16 µM): 17.1%
- viability, T/C (second compound 10 µM, first compound 10 µM): 11.2%

SMILES: CC(C)n1nc(-c2ccc3oc(N)nc3c2)c2c(N)ncnc21 + C#Cc1c(F)ccc2cc(O)cc(-c3ncc4c(N5CC6CCC(C5)N6)nc(OCC56CCCN5CC(F)C6)nc4c3F)c12
- pIC50 (second compound 0.0316 µM): 8.40
- pIC50 (second compound 0.1 µM): 8.56
- pIC50 (second compound 0.316 µM): 8.90
- pIC50 (second compound 1 µM): > 9.50
- pIC50 (second compound 3.16 µM): > 9.50
- pIC50 (second compound 10 µM): > 9.50
- viability, T/C (second compound 0.0316 µM, first compound 0.000316 µM): 78.9%
- viability, T/C (second compound 0.0316 µM, first compound 0.001 µM): 70.5%
- viability, T/C (second compound 0.0316 µM, first compound 0.00316 µM): 51%
- viability, T/C (second compound 0.0316 µM, first compound 0.01 µM): 39.2%
- viability, T/C [1]: 31.6%
- viability, T/C [2]: 26.3%
- viability, T/C (second compound 0.1 µM, first compound 0.000316 µM): 68.5%
- viability, T/C (second compound 0.1 µM, first compound 0.001 µM): 68.6%
- viability, T/C (second compound 0.1 µM, first compound 0.00316 µM): 46.3%
- viability, T/C (second compound 0.1 µM, first compound 0.01 µM): 33.9%
- viability, T/C [3]: 27.8%
- viability, T/C [4]: 26.6%
- viability, T/C (second compound 0.316 µM, first compound 0.000316 µM): 60.8%
- viability, T/C (second compound 0.316 µM, first compound 0.001 µM): 51.7%
- viability, T/C (second compound 0.316 µM, first compound 0.00316 µM): 42%
- viability, T/C (second compound 0.316 µM, first compound 0.01 µM): 34.5%
- viability, T/C [5]: 26.7%
- viability, T/C [6]: 26.3%
- viability, T/C (second compound 1 µM, first compound 0.000316 µM): 33.6%
- viability, T/C (second compound 1 µM, first compound 0.001 µM): 35.9%
- viability, T/C (second compound 1 µM, first compound 0.00316 µM): 31.3%
- viability, T/C (second compound 1 µM, first compound 0.01 µM): 23.7%
- viability, T/C [7]: 21.1%
- viability, T/C [8]: 18.8%
- viability, T/C (second compound 3.16 µM, first compound 0.000316 µM): 29.4%
- viability, T/C (second compound 3.16 µM, first compound 0.001 µM): 30.4%
- viability, T/C (second compound 3.16 µM, first compound 0.00316 µM): 25.9%
- viability, T/C (second compound 3.16 µM, first compound 0.01 µM): 20.2%
- viability, T/C [9]: 18.4%
- viability, T/C [10]: 15.9%
- viability, T/C (second compound 10 µM, first compound 0.000316 µM): 24.1%
- viability, T/C (second compound 10 µM, first compound 0.001 µM): 22.3%
- viability, T/C (second compound 10 µM, first compound 0.00316 µM): 20%
- viability, T/C (second compound 10 µM, first compound 0.01 µM): 15.9%
- viability, T/C [11]: 11.5%
- viability, T/C [12]: 9.78%

— PubChem BioAssay AID2060896 (Molecular Pharmacology Branch, DTP, NCI, 2025)
